Assay results published in PubChem BioAssay AID192 (DTP/NCI, 2004).
“And” between values parts separate entries of the source, which are not always exact repeats. Equal entries are not always repeated. Inconclusive results and toxic doses are left out.

System: BDF1 mice, B16 melanoma ip, median survival T/C
Test: NCI In Vivo Anticancer Drug Screen. Data for tumor model B16 Melanoma (intraperitoneal) in B6D2F1 (BDF1) mice
Conditions: endpoint: median survival time, higher = longer survival
Outline: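 Values are ratios of treated (T) to vehicle-control (C) measurements of survival or tumor size in tumor-bearing mice.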

[1] = dose: 12.5 mg/kg/injection, schedule: Q01DX009 (ip), vehicle: Klucel (hydroxypropylcellulose) (HPC)
[2] = dose: 25.0 mg/kg/injection, schedule: Q01DX009 (ip), vehicle: Klucel (hydroxypropylcellulose) (HPC)
[3] = dose: 50.0 mg/kg/injection, schedule: Q01DX009 (ip), vehicle: Klucel (hydroxypropylcellulose) (HPC)
[4] = dose: 100.0 mg/kg/injection, schedule: Q04DX003 (ip), vehicle: saline with Tween-80
[5] = dose: 200.0 mg/kg/injection, schedule: Q04DX003 (ip), vehicle: saline with Tween-80
[6] = dose: 400.0 mg/kg/injection, schedule: Q04DX003 (ip), vehicle: saline with Tween-80
[7] = dose: 100.0 mg/kg/injection, schedule: Q01DX009 (ip), vehicle: Klucel (hydroxypropylcellulose) (HPC)
[8] = dose: 100.0 mg/kg/injection, schedule: Q04DX003 (ip), vehicle: Klucel (hydroxypropylcellulose) (HPC)

In the case of CC(C)(C[NH-])C[NH-].[Cl][Pt+2][Cl], the T/C (dose: 0.5 mg/kg/injection, schedule: Q04DX003 (ip), vehicle: water) is reported as 164 % of control, the T/C (dose: 1.0 mg/kg/injection, schedule: Q04DX003 (ip), vehicle: water) is reported as 165 % of control and 183 % of control and the T/C (dose: 2.0 mg/kg/injection, schedule: Q04DX003 (ip), vehicle: water) is reported as 161 % of control and 201 % of control. For the same compound, the T/C (dose: 4.0 mg/kg/injection, schedule: Q04DX003 (ip), vehicle: water) was 213 % of control.

COC(=O)NC1C(C)OC(OC2C/C=C(/C)C3C=CC4C(OC5CC(OC6CCC(OC7CC(O)C(OC8CCC(O)C(C)O8)C(C)O7)C(C)O6)C(OC(C)=O)C(C)O5)C(C)CC(C)C4C3(C)/C(O)=C3/C(=O)OC4(CC(C=O)=CC(O)C4/C=C\2C)C3=O)CC1(C)[N+](=O)[O-] (stereo unspecified) was tested, and the T/C (dose: 2.5 mg/kg/injection, schedule: Q01DX009 (ip), vehicle: water) was 159 % of control, the T/C (dose: 5.0 mg/kg/injection, schedule: Q01DX009 (ip), vehicle: water) was 165 % of control and the T/C (dose: 10.0 mg/kg/injection, schedule: Q01DX009 (ip), vehicle: water) was 157 % of control.

With COc1ccc2c(Cc3ccccc3)cncc2c1O the T/C (dose: 6.25 mg/kg/injection, schedule: Q01DX009 (ip), vehicle: Klucel (hydroxypropylcellulose) (HPC)) was 97 % of control, the T/C [1] was 99 % of control and the T/C [2] was 102 % of control. The T/C [3] was 104 % of control.

For CC1CCC2N(C1)CC1C(C(O)C(O)C3(O)C1CC14OC5(O)C(O)CCC1(C)C5CC(O)C34)C2(C)O (stereo unspecified), the T/C (dose: 16.25 mg/kg/injection, schedule: Q01DX009 (ip), vehicle: saline) was 100 % of control, the T/C (dose: 37.5 mg/kg/injection, schedule: Q01DX009 (ip), vehicle: saline) was 102 % of control and the T/C (dose: 65.0 mg/kg/injection, schedule: Q01DX009 (ip), vehicle: saline) was 100 % of control. The T/C (dose: 130.0 mg/kg/injection, schedule: Q01DX009 (ip), vehicle: saline) was 104 % of control.

In the case of CCOC(=O)CN=NNc1[nH]ncc1C(N)=O, the T/C [4] is reported as 100 % of control, the T/C [5] is reported as 104 % of control and the T/C [6] is reported as 111 % of control.

Cc1cc2nc(-c3ccccc3O)[nH]c2cc1C was tested, and the T/C [7] was 93 % of control and 94 % of control and the T/C (dose: 200.0 mg/kg/injection, schedule: Q01DX009 (ip), vehicle: Klucel (hydroxypropylcellulose) (HPC)) was 94 % of control and 106 % of control.

CN(C)N=Nc1ccnc2c(Cl)cccc12 was tested, and the T/C (dose: 10.8 mg/kg/injection, schedule: Q01DX009 (ip), vehicle: DMSO) was 101 % of control, the T/C (dose: 18.0 mg/kg/injection, schedule: Q01DX009 (ip), vehicle: DMSO) was 103 % of control and the T/C (dose: 30.0 mg/kg/injection, schedule: Q01DX009 (ip), vehicle: DMSO) was 101 % of control. The T/C (dose: 50.0 mg/kg/injection, schedule: Q01DX009 (ip), vehicle: DMSO) was 99 % of control.

CS(=O)(=O)OCCCCCCCCCOS(C)(=O)=O was tested, and the T/C [2] was 94 % of control, the T/C [3] was 88 % of control and the T/C [7] was 102 % of control.

With CCCCNC(C)(C)C(SSSC(c1cccs1)C(C)(C)NCCCC)c1cccs1 (stereo unspecified) the T/C (dose: 12.5 mg/kg/injection, schedule: Q01DX009 (ip), vehicle: saline with Tween-80) was 96 % of control and the T/C (dose: 25.0 mg/kg/injection, schedule: Q01DX009 (ip), vehicle: saline with Tween-80) was 86 % of control.

With CN1CCN(c2ccc(Cl)cc2)CC1 the T/C [2] was 100 % of control and the T/C [3] was 100 % of control.

For O=CNc1cc2ccccc2c2ccc3ccccc3c12, the T/C (dose: 50.0 mg/kg/injection, schedule: Q04DX003 (ip), vehicle: Klucel (hydroxypropylcellulose) (HPC)) was 104 % of control and the T/C [8] was 100 % of control.

For CCC(C)(C[NH-])C[NH-].[Cl][Pt+2][Cl], the T/C (dose: 0.5 mg/kg/injection, schedule: Q01DX009 (ip), vehicle: carboxymethylcellulose (CMC)) was 159 % of control and the T/C (dose: 1.0 mg/kg/injection, schedule: Q01DX009 (ip), vehicle: carboxymethylcellulose (CMC)) was 180 % of control.

O=C(NO)c1ccccc1 was tested, and the T/C (dose: 12.5 mg/kg/injection, schedule: Q01DX009 (ip), vehicle: suspension in saline) was 94 % of control, the T/C (dose: 25.0 mg/kg/injection, schedule: Q01DX009 (ip), vehicle: suspension in saline) was 95 % of control and the T/C (dose: 50.0 mg/kg/injection, schedule: Q01DX009 (ip), vehicle: saline) was 97 % of control. For the same compound, the T/C (dose: 50.0 mg/kg/injection, schedule: Q01DX009 (ip), vehicle: suspension in saline) was 92 % of control, the T/C (dose: 50.0 mg/kg/injection, schedule: Q04DX003 (ip), vehicle: saline with Tween-80) was 107 % of control and the T/C (dose: 100.0 mg/kg/injection, schedule: Q01DX009 (ip), vehicle: saline) was 97 % of control. For the same compound, the T/C (dose: 100.0 mg/kg/injection, schedule: Q01DX009 (ip), vehicle: suspension in saline) was 92 % of control, the T/C [4] was 111 % of control and the T/C (dose: 178.0 mg/kg/injection, schedule: Q04DX003 (ip), vehicle: saline with Tween-80) was 102 % of control. For the same compound, the T/C (dose: 200.0 mg/kg/injection, schedule: Q01DX009 (ip), vehicle: saline) was 107 % of control, the T/C [5] was 108 % of control and the T/C [6] was 100 % of control. The T/C (dose: 600.0 mg/kg/injection, schedule: Q04DX003 (ip), vehicle: saline with Tween-80) was 100 % of control.

For O=C1c2ccccc2C(=O)c2c(NCCSCCO)ccc(NCCSCCO)c21, the T/C (dose: 16.0 mg/kg/injection, schedule: Q01DX009 (ip), vehicle: Klucel (hydroxypropylcellulose) (HPC)) was 94 % of control, the T/C (dose: 32.0 mg/kg/injection, schedule: Q01DX009 (ip), vehicle: Klucel (hydroxypropylcellulose) (HPC)) was 103 % of control and the T/C (dose: 64.0 mg/kg/injection, schedule: Q01DX009 (ip), vehicle: Klucel (hydroxypropylcellulose) (HPC)) was 96 % of control. The T/C (dose: 128.0 mg/kg/injection, schedule: Q01DX009 (ip), vehicle: Klucel (hydroxypropylcellulose) (HPC)) was 88 % of control and the T/C (dose: 256.0 mg/kg/injection, schedule: Q01DX009 (ip), vehicle: Klucel (hydroxypropylcellulose) (HPC)) was 87 % of control.

In the case of CCN(CC)CCCN1c2ccccc2Sc2ccc(Cl)cc21, the T/C (dose: 0.78 mg/kg/injection, schedule: Q01DX009 (ip), vehicle: saline) is reported as 91 % of control, the T/C (dose: 1.56 mg/kg/injection, schedule: Q01DX009 (ip), vehicle: saline) is reported as 104 % of control and the T/C (dose: 3.12 mg/kg/injection, schedule: Q01DX009 (ip), vehicle: saline) is reported as 102 % of control. The T/C (dose: 6.25 mg/kg/injection, schedule: Q01DX009 (ip), vehicle: saline) was 93 % of control and the T/C (dose: 12.5 mg/kg/injection, schedule: Q01DX009 (ip), vehicle: saline) was 91 % of control.

For CCN1C=C/C(=C/c2cc3scc(-c4ccccc4)[n+]3c3ccccc23)c2ccccc21, the T/C (dose: 0.08 mg/kg/injection, schedule: Q01DX009 (ip), vehicle: saline) was 94 % of control, the T/C (dose: 0.15 mg/kg/injection, schedule: Q01DX009 (ip), vehicle: saline) was 94 % of control and the T/C (dose: 0.3 mg/kg/injection, schedule: Q01DX009 (ip), vehicle: saline) was 90 % of control. The T/C (dose: 75.0 micrograms/kg/injection, schedule: Q01DX009 (ip), vehicle: Klucel (hydroxypropylcellulose) (HPC)) was 103 % of control, the T/C (dose: 150.0 micrograms/kg/injection, schedule: Q01DX009 (ip), vehicle: Klucel (hydroxypropylcellulose) (HPC)) was 107 % of control and the T/C (dose: 300.0 micrograms/kg/injection, schedule: Q01DX009 (ip), vehicle: Klucel (hydroxypropylcellulose) (HPC)) was 98 % of control. For the same compound, the T/C (dose: 600.0 micrograms/kg/injection, schedule: Q01DX009 (ip), vehicle: Klucel (hydroxypropylcellulose) (HPC)) was 95 % of control.

In the case of S=P(NCCNP(=S)(N1CC1)N1CC1)(N1CC1)N1CC1, the T/C [1] is reported as 118 % of control and the T/C [2] is reported as 124 % of control.

For CC1=NN(c2ccccc2)C(=O)C1N=Nc1ccccc1S(=O)(=O)O (stereo unspecified), the T/C (dose: 50.0 mg/kg/injection, schedule: Q01DX009 (ip), vehicle: saline with Tween-80) was 90 % of control.

With COc1ccc(C(C)=O)cc1N the T/C [8] was 100 % of control, the T/C (dose: 200.0 mg/kg/injection, schedule: Q04DX003 (ip), vehicle: Klucel (hydroxypropylcellulose) (HPC)) was 97 % of control and the T/C (dose: 400.0 mg/kg/injection, schedule: Q04DX003 (ip), vehicle: Klucel (hydroxypropylcellulose) (HPC)) was 95 % of control.
